One may read the IC50 as the concentration that inhibits the measured activity by half.

The results in this text go back to patent US11702409B2, “Pyrazolyl derivatives useful as anti-cancer agents” (NOVARTIS AG, priority 2019, dated 2023).

The assay deals with KRasG12C (M1-K169, biotinylated on the N-terminus) (Homo sapiens (Human), UniProt P01116, G12C). Briefly: Covalent competition assay (scintillation proximity assay, competition with radiolabeled covalent probe Compound B). It is filed as binding. To be noted: in vitro KRASG12C activity; 10 nM KRasG12C:GDP, 25 nM radio-ligand and 475 nM unlabelled ligand, incubated 2 hours; read-out: Covalent Competition Assay IC50. The essentials: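 Biotinylated KRasG12C (M1-K169):GDP incubated 2 h with agitation with serially diluted compounds premixed with a fixed concentration of radiolabeled covalent probe; scintillation proximity read-out of competition for covalent modification. Buffer 20 mM Tris-HCl pH 7.5, 150 mM NaCl, 0.1 mM MgCl2, 0.01% Tween-20. IC50 from 4-parameter fit.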

In the case of `C=CC(=O)N1CC2(CC(n3nc(-c4ccc5c(c4)CS(=O)(=O)C5)c(-c4c(Cl)c(C)cc5[nH]ncc45)c3C)C2)C1` (single isomer, unassigned) [Example 72b], the 50% inhibitory concentration (IC50) came out at 24000 nM.
The figure for `C=CC(=O)N1CC2(CC(n3nc(C4=CN5CC(C)(C)N=C5C(F)=C4)c(-c4c(Cl)c(C)cc5[nH]ncc45)c3C)C2)C1` (single isomer, unassigned) [Example 73a] is 5310 nM.
The figure for `C=CC(=O)N1CC2(CC(n3nc(C4=CN5CC(C)(C)N=C5C(F)=C4)c(-c4c(Cl)c(C)cc5[nH]ncc45)c3C)C2)C1` (single isomer, unassigned) [Example 73b] is above 50000 nM; for `C=CC(=O)N1CC2(CC(n3nc(-c4c(C)cncc4C)c(-c4c(Cl)c(C)cc5[nH]ncc45)c3C)C2)C1` (single isomer, unassigned) [Example 74a] it is 1550 nM; for `C=CC(=O)N1CC2(CC(n3nc(-c4c(C)cncc4C)c(-c4c(Cl)c(C)cc5[nH]ncc45)c3C)C2)C1` (single isomer, unassigned) [Example 74b] it is above 50000 nM.
As for `C=CC(=O)N1CC2(CC(n3nc(-c4ccc5c(c4)CN(C)C5)c(-c4c(Cl)c(C)cc5[nH]ncc45)c3C)C2)C1` (single isomer, unassigned) [Example 75a], the IC50 was 251 nM.
The figure for `C=CC(=O)N1CC2(CC(n3nc(-c4ccc5c(c4)CN(C)C5)c(-c4c(Cl)c(C)cc5[nH]ncc45)c3C)C2)C1` (single isomer, unassigned) [Example 75b] is above 50000 nM.
Consider `C=CC(=O)N1CC2(CC(n3nc(-c4ccc5nn(CCN6CC[C@H](F)C6)cc5c4)c(-c4c(Cl)c(C)cc5[nH]ncc45)c3C)C2)C1` (single isomer, unassigned) [Example 80a], for which the IC50 was found to be 1300 nM.
For `C=CC(=O)N1CC2(CC(n3nc(-c4ccc5nn(CCN6CC[C@H](F)C6)cc5c4)c(-c4c(Cl)c(C)cc5[nH]ncc45)c3C)C2)C1` (single isomer, unassigned) [Example 80b] the value was 8 nM.
For `C=CC(=O)N1CC2(CC(n3nc(-c4ccc5nn(CCN6CC(OC)C6)cc5c4)c(-c4c(Cl)c(C)cc5[nH]ncc45)c3C)C2)C1` (single isomer, unassigned) [Example 82a] the value was 12 nM; for `C=CC(=O)N1CC2(CC(n3nc(-c4ccc5nn(CCN6CC(OC)C6)cc5c4)c(-c4c(Cl)c(C)cc5[nH]ncc45)c3C)C2)C1` (single isomer, unassigned) [Example 82b], 712 nM.
Take `C=CC(=O)N1CC2(CC(n3nc(-c4ccc5c(cnn5CCO)c4)c(-c4c(Cl)c(C)cc5[nH]ncc45)c3C)C2)C1` (single isomer, unassigned) [Example 83a, 1-(6-(4-(5-chloro-6-methyl-1H-indazol-4-yl)-3-(1-(2-hydroxyethyl)-1H-indazol-5-yl)-5-methyl-1H-pyrazol-1-yl)-2-azaspiro[3.3]heptan-2-yl)prop-2-en-1-one]: the IC50 came to 18 nM.
The figure for `C=CC(=O)N1CC2(CC(n3nc(-c4ccc5c(cnn5CCO)c4)c(-c4c(Cl)c(C)cc5[nH]ncc45)c3C)C2)C1` (single isomer, unassigned) [Example 83b, 1-(6-(4-(5-chloro-6-methyl-1H-indazol-4-yl)-3-(1-(2-hydroxyethyl)-1H-indazol-5-yl)-5-methyl-1H-pyrazol-1-yl)-2-azaspiro[3.3]heptan-2-yl)prop-2-en-1-one] is 4000 nM.
The figure for `C=CC(=O)N1CC2(CC(n3nc(-c4cccnc4C)c(-c4c(Cl)c(C)cc5[nH]ncc45)c3C(F)F)C2)C1` (single isomer, unassigned) [Example 84a, 1-(6-(4-(5-Chloro-6-methyl-1H-indazol-4-yl)-5-(difluoromethyl)-3-(2-methylpyridin-3-yl)-1H-pyrazol-1-yl)-2-azaspiro[3.3]heptan-2-yl)prop-2-en-1-one] is 536 nM; for `C=CC(=O)N1CC2(CC(n3nc(-c4cccnc4C)c(-c4c(Cl)c(C)cc5[nH]ncc45)c3C(F)F)C2)C1` (single isomer, unassigned) [Example 84b, 1-(6-(4-(5-Chloro-6-methyl-1H-indazol-4-yl)-5-(difluoromethyl)-3-(2-methylpyridin-3-yl)-1H-pyrazol-1-yl)-2-azaspiro[3.3]heptan-2-yl)prop-2-en-1-one] it is above 50000 nM; for `C=CC(=O)N1CC2(CC(n3nc(-c4cccnc4)c(-c4c(Cl)c(Cl)cc5[nH]ncc45)c3C(F)F)C2)C1` (single isomer, unassigned) [Example 85a] it is 335 nM.
As to `C=CC(=O)N1CC2(CC(n3nc(-c4cccnc4)c(-c4c(Cl)c(Cl)cc5[nH]ncc45)c3C(F)F)C2)C1` (single isomer, unassigned) [Example 85b], the IC50 turned out to be 21600 nM.
Take `C=CC(=O)N1CC2(CC(n3nc(-c4cncnc4)c(-c4c(Cl)c(Cl)cc5[nH]ncc45)c3C(F)F)C2)C1` (single isomer, unassigned) [Example 86a]: the IC50 amounted to 1300 nM.
The figure for `C=CC(=O)N1CC2(CC(n3nc(-c4cncnc4)c(-c4c(Cl)c(Cl)cc5[nH]ncc45)c3C(F)F)C2)C1` (single isomer, unassigned) [Example 86b] is above 50000 nM; for `C=CC(=O)N1CC2(CC(n3nc(-c4cccnc4)c(-c4c(Cl)c(C)cc5[nH]ncc45)c3C(F)F)C2)C1` (single isomer, unassigned) [Example 87a] it is 806 nM; for `C=CC(=O)N1CC2(CC(n3nc(-c4cccnc4)c(-c4c(Cl)c(C)cc5[nH]ncc45)c3C(F)F)C2)C1` (single isomer, unassigned) [Example 87b] it is above 50000 nM.
For `C=CC(=O)N1CC2(CC(n3nc(-c4cccnc4C)c(-c4c(Cl)ccc5[nH]ncc45)c3C)C2)C1` (single isomer, unassigned) [Example 89a], the IC50 turned out to be 2300 nM.
Consider `C=CC(=O)N1CC2(CC(n3nc(-c4cccnc4C)c(-c4c(Cl)ccc5[nH]ncc45)c3C)C2)C1` (single isomer, unassigned) [Example 89b], for which the IC50 came to 25500 nM.
The figure for `C=CC(=O)N1CC2(CC(n3nc(-c4cnc(OC)nc4)c(-c4c(Cl)ccc5[nH]ncc45)c3C)C2)C1` (single isomer, unassigned) [Example 90a] is 3500 nM; for `C=CC(=O)N1CC2(CC(n3nc(-c4cnc(OC)nc4)c(-c4c(Cl)ccc5[nH]ncc45)c3C)C2)C1` (single isomer, unassigned) [Example 90b] it is above 50000 nM.
For `C=CC(=O)N1CC2(CC(n3nc(-c4cccc(=O)n4C)c(-c4c(Cl)ccc5[nH]ncc45)c3C)C2)C1` (single isomer, unassigned) [Example 91a] the value was 5300 nM; for `C=CC(=O)N1CC2(CC(n3nc(-c4cccc(=O)n4C)c(-c4c(Cl)ccc5[nH]ncc45)c3C)C2)C1` (single isomer, unassigned) [Example 91b], 25300 nM.
For `C=CC(=O)N1CC2(CC(n3nc(-c4cc(C)nn4CCN(C)C)c(-c4c(Cl)c(C)cc5[nH]ncc45)c3C)C2)C1` (single isomer, unassigned) [Example 92a] the value was 1400 nM; for `C=CC(=O)N1CC2(CC(n3nc(-c4cc(C)nn4CCN(C)C)c(-c4c(Cl)c(C)cc5[nH]ncc45)c3C)C2)C1` (single isomer, unassigned) [Example 92b], 43000 nM.
In the case of `C=CC(=O)N1CC2(CC(n3nc(-c4ccc5cn[nH]c5c4)c(-c4c(Cl)c(C)cc5[nH]ncc45)c3C)C2)C1` [Example 14], the IC50 is 310 nM.
The figure for `C=CC(=O)N1CC2(CC(n3nc(-c4ccc(CN5CCCC5=O)cc4)c(-c4c(Cl)c(C)cc5[nH]ncc45)c3C)C2)C1` [Example 48, 1-(4-(1-(2-acryloyl-2-azaspiro[3.3]heptan-6-yl)-4-(5-chloro-6-methyl-1H-indazol-4-yl)-5-methyl-1H-pyrazol-3-yl)benzyl)pyrrolidin-2-one] is 49 nM; for `C=CC(=O)N1CC2(CC(n3nc(-c4ccc(-n5ccc(N)n5)nc4)c(-c4c(Cl)c(C)cc5[nH]ncc45)c3C)C2)C1` [Example 53, 1-(6-(3-(6-(3-amino-1H-pyrazol-1-yl)pyridin-3-yl)-4-(5-chloro-6-methyl-1H-indazol-4-yl)-5-methyl-1H-pyrazol-1-yl)-2-azaspiro[3.3]heptan-2-yl)prop-2-en-1-one] it is 320 nM; for `C=CC(=O)N1CC2(CC(n3nc(-c4cc5cn(C)nc5cn4)c(-c4c(Cl)c(C)cc5[nH]ncc45)c3C)C2)C1` [Example 77] it is 195 nM.
The figure for `C=CC(=O)N1CC2(CC(n3nc(-c4ccc(OC)nc4)c(-c4c(Cl)c(C)cc5[nH]ncc45)c3C)C2)C1` [Example 78a, 1-(6-(4-(5-chloro-6-methyl-1H-indazol-4-yl)-3-(6-methoxypyridin-3-yl)-5-methyl-1H-pyrazol-1-yl)-2-azaspiro[3.3]heptan-2-yl)prop-2-en-1-one] is 216 nM; for `C=CC(=O)N1CC2(CC(n3nc(-c4ccc(N)nc4)c(-c4c(Cl)c(C)cc5[nH]ncc45)c3C)C2)C1` [Example 79a, 1-(6-(3-(6-aminopyridin-3-yl)-4-(5-chloro-6-methyl-1H-indazol-4-yl)-5-methyl-1H-pyrazol-1-yl)-2-azaspiro[3.3]heptan-2-yl)prop-2-en-1-one] it is 92 nM; for `C=CC(=O)N1CC2(CC(n3nc(-c4cccnc4)c(-c4c(Cl)c(C)cc5[nH]ncc45)c3CC#N)C2)C1` [Example 88] it is 13500 nM.
The figure for `C=CC(=O)N1CC2(CC(n3nc(-c4ccc5c(cnn5C)c4)c(-c4cc(O)ccc4Cl)c3C)C2)C1` [Example 94, 1-(6-(4-(2-chloro-5-hydroxyphenyl)-5-methyl-3-(1-methyl-1H-indazol-5-yl)-1H-pyrazol-1-yl)-2-azaspiro[3.3]heptan-2-yl)prop-2-en-1-one] is 2300 nM.
